Assay results published in US6649626B1, “N-substituted 1-(lactone) isoquinolones for treating nervous disorders” (Centre National de la Recherche Scientifique (CNRS), priority 1999, dated 2003).

Experiments:
[1] = target: T1, benzodiazepine-binding site of the GABA-A receptor (Rattus norvegicus, UniProt P18508+P62813); assay: Displacement of tritiated flunitrazepam from brain membranes; conditions: tissue not stated; for inhibition at 100 µM: read-out: Inhibition of the tritiated ligands % Flu (100 μM)
T1 construct: IC50 Flu / BZ receptor; other: cerebellum (ce); other: cerebellum (ce; BZ1 subtype); other: 10 μM; cerebellum; other: 100 μM; other: 0.5 μM
T1 sequence (P62813 28-455): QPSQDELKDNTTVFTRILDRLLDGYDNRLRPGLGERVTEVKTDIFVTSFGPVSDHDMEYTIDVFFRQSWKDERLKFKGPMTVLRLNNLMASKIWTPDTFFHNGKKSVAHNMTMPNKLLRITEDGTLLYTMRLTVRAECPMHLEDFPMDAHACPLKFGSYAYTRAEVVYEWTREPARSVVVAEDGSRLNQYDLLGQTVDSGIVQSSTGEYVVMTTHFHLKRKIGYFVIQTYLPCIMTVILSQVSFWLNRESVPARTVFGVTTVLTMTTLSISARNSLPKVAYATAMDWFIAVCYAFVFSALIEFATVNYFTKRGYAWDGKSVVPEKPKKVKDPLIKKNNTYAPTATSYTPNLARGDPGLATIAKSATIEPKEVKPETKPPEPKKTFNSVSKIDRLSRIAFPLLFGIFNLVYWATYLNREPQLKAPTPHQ
T1 sequence (P18508 39-466): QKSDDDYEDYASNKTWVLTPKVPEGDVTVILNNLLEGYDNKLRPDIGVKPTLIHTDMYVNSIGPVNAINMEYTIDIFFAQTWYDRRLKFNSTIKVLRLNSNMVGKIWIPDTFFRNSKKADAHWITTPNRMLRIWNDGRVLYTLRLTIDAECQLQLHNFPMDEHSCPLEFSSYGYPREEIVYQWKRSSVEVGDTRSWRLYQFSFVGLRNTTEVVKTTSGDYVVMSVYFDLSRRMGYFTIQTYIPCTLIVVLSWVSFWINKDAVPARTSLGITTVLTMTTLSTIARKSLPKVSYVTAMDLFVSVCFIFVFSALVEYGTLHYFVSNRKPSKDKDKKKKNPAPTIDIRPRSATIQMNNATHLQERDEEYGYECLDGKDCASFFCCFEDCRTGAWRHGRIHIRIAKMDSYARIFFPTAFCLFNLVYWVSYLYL
T1 sequence (P63138 26-474 partner): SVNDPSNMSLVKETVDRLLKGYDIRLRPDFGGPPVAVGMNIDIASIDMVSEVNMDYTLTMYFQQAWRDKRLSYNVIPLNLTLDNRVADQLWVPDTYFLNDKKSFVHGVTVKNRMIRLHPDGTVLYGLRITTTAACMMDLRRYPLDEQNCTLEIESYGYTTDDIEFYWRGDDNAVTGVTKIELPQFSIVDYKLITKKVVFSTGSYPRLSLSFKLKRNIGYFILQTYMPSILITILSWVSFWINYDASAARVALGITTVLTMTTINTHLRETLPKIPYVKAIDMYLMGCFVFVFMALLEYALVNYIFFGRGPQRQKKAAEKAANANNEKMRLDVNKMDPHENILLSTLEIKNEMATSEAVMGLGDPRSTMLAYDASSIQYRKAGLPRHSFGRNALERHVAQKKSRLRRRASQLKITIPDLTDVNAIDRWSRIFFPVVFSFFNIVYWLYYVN

[2] = target: T2, α1β2γ2 subtype of the GABA receptor (Rattus norvegicus, UniProt P18508+P62813+P63138); assay: Electrophysiology: modulation of GABA currents in Xenopus oocytes expressing recombinant GABA-A receptors; assay type: cell-based; conditions: α1β2γ2 in oocytes; for % stimulation of the GABA currents (100 μM): 100 μM compound with GABA
T2 construct: expressed in transfected cells; host or cells: Xenopus laevis oocytes (cRNA injection)
T2 sequence (P62813 28-455): as the sequence (P62813 28-455) above
T2 sequence (P63138 25-474 limits assumed): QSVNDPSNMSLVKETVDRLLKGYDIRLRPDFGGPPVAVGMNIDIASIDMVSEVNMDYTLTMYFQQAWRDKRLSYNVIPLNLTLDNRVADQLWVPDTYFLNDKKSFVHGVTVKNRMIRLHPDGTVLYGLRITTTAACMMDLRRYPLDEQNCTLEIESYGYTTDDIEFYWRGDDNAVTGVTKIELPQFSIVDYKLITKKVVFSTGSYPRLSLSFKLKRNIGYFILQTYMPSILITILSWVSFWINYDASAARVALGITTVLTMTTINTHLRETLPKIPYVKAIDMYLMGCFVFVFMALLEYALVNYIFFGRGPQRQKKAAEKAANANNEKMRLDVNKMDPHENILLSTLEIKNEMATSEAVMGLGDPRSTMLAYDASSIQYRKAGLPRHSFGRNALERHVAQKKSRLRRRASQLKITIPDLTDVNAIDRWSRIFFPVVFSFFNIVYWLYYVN
T2 sequence (P18508 39-466): as the sequence (P18508 39-466) above

[3] = tested on: Ro15-4513 binding (GABA-A receptor); assay: Ro15-4513 displacement; conditions: 100 μM
[4] = tested on: GABA-binding site of the GABA-A receptor; assay: Displacement of tritiated muscimol from brain membranes
[5] = tested on: picrotoxin-binding site of the GABA-A receptor; assay: Displacement of 35S-TBPS from brain membranes; design: species or system rats

SMILES | Inhibition of the tritiated ligands % Flu (100 μM) [1] | inhibition at 100 µM [1] [%] | % stimulation of the GABA currents (100 μM) [2] | % stimulation of the GABA currents ([2]; 0.1 μM compound) [%] | Displacement of muscimol ([4]; 100 μM) | other results
COc1cc2c(cc1OC)[C@H]([C@@H]1CCC(=O)O1)NCC2 (racemic) [Compound 27b, (±)-Threo-6,7-dimethoxy-1-(2,3,4,5-tetrahydro-5-oxo-2-furyl)-1,2,3,4-tetrahydroisoquinoline] | negligible | – | – | – | – | % stimulation of the GABA currents ([2]; 200 μM compound): 200 μM = −6%
COc1cc2c(cc1OC)C(C1CCC(=O)O1)N(C)CC2 (racemic) [Compound 28] | – | 50 | – | – | – | Ro15-4513 displacement [3]: Ro15-4513 displacement 100 μM = 50%; % stimulation of the GABA currents ([2]; 200 μM compound): 200 μM = +2%
COc1cc2c(cc1OC)[C@H]([C@@H]1C=C(C)C(=O)O1)N(C)CC2 (racemic) [Compound 30b] | negligible | – | −10% | – | – | –
COc1cc2c(cc1OC)[C@H]([C@@H]1C=CC(=O)O1)N(C(=O)OCc1ccccc1)CC2 (racemic) [Compound 32b, (±)-(1R,2′S)-1-(2,5-Dihydro-5-oxo-2-furyl)-2-N-benzyloxycarbonyl-6,7-dimethoxy-1,2,3,4-tetrahydroisoquinoline] | – | – | – | – | – | Displacement of muscimol ([4]; concentration not given): Displacement of muscimol = 0%
COc1cc2c(cc1OC)C(C1C=CC(=O)O1)NCC2 (racemic) [Compound 42] | – | 30 | −45 ± 6% | 0 | 20% | inhibition at 10 µM ([1]; 10 μM, read-out: Inhibition of the tritiated ligands % Flu): 0%; Displacement of muscimol ([4]; 10 μM): 0%
CC1=C[C@@H]([C@H]2c3cc4c(cc3CCN2C)OCO4)OC1=O (racemic) [Compound 43] | – | ~20 | −7 ± 2% | – | 50% | Inhibition of the tritiated ligands % TBPS ([5]; 10 μM): 10%; Displacement of muscimol ([4]; 0.5 μM): 30%; Displacement of muscimol ([4]; 10 μM): 45%
O=C1C=CC(C2c3cc4c(cc3CCN2C(=O)OCc2ccccc2)OCO4)O1 (racemic) [Compound 44] | 45% | – | – | 0 | – | Inhibition of the tritiated ligands % Flu ([1]; 0.5 μM): < 5%; Inhibition of the tritiated ligands % Flu ([1]; 10 μM): 20%; Inhibition of the tritiated ligands % TBPS ([5]; 0.5 μM): 0%; Inhibition of the tritiated ligands % TBPS ([5]; 10 μM): 25%; % stimulation of the GABA currents ([2]; 50 μM compound): +215 ± 16%; Displacement of muscimol ([4]; 0.5 μM): 10%; Displacement of muscimol ([4]; 10 μM): 0%; Muscimol: stimulation ([4]; 100 μM, stimulation instead of displacement): 10%
COc1cc2c(cc1OC)C(C1C=C(C)C(=O)O1)N(C(=O)OCc1ccccc1)CC2 (racemic) [Compound 46] | 0% | – | 24 ± 5% | 0 | 100 μM = 0% | –
COc1cc2c(cc1OC)C(C1C=C(C)C(=O)O1)N(C(=O)OCc1ccccc1)CC2 (racemic) [Compound 47] | 10% | – | 60 ± 26% | 0 | 100 μM = 0% | –
COc1cc2c(cc1OC)C(C1CCC(=O)O1)N(C(=O)OCc1ccccc1)CC2 (racemic) [Compound 48, (±)-(1R,2′R)-2-N-Benzyloxycarbonyl-6,7-dimethoxy-1-(2,3,4,5-tetrahydro-5-oxo-2-furyl)-1,2,3,4-tetrahydroisoquinoline] | – | 35 | +159 ± 31% | 0 | – | % stimulation of the GABA currents (100 μM) ([2]; listed as (+/−) 48): +159%
COc1cc2c(cc1OC)[C@H]([C@@H]1CCC(=O)O1)N(C(=O)OCc1ccccc1)CC2 (racemic) [Compound 49] | 30% | – | +67 ± 9% | 0 | 100 μM = 0% | Inhibition of the tritiated ligands % TBPS ([5]; 10 μM): 0%
